This is an account of results in patent US7091345B2, “Amino-substituted dihydropyrimido[4,5-D]pyrimidinone derivatives” (Hoffmann-La Roche Inc., priority 2002, dated 2006).

Structures can show the parent of a compound that is named as a salt.

The target of series [1] is T1, Src (p60^c-src) (Homo sapiens, UniProt P12931).
T1 construct: purchased Upstate (UBI)
Put plainly: SRC-Inhibitor-Assay, time-resolved fluorescence kinase assay (Src). It is filed as biochemical. Particulars: ATP 5 μM; enzyme 2.5 U/ml; pre-incubation 15 min at 15° C.; read-out: IC 50 (src). As for the experimental part: (§1) The activity of the compounds according to this invention as inhibitors for the src-family tyrosine kinases was shown by using the following assay.
(§2) SRC-Inhibitor-Assay Parameters:
(§3) Assay buffer: 4 mM MgCl2 • 2 mM TCEP • 50 mM HEPES • 0,1% Tween 20 • pH 7.3
(§4) Material: Eu-labelled phosphotyrosine antibody:—for Lck Cisbio Mab PT66-K, for Src EG&G Wallac PT66 Eu-W1024 (all commercially available). Peptides: Ro: NH2-A-E-E-E-I-Y-G-E-F-E-A-K-K-K-K-CONH2, and Ja133-Ro: Ja133-G-Aminocaprylic acid-A-E-E-E-I-Y-G-E-F-E-A-K-K-K-K-CONH2, wherein Ja133 is LightCycler-Red 640-N-hydroxy succinimide ester; whereby both peptides were synthesized by an optimized solid phase peptide synthesis protocol (Merrifield, Fed. Proc. Fed. Amer. Soc. Exp. Biol. 21 (1962) 412) on a Zinsser SMP350 peptide synthesizer. Shortly, the peptide was assembled on 160 mg (22.8 μmol scale) of a Rink-Linker modified polystyrene solid phase by repeatedly conjugating an twenty fold excess of amino acids each protected by temporary piperidine labile Fmoc- and permanent acid labile tert-Bu-, BOC— and Otert-Bu-groups depending on the side chain function. The substrate sequence AEEEIYGEFEAKKKK was N-terminal additionally mounted with the spacer amino acids Aminocaprylic acid and Glycin. After cleavage of the N-terminal temporary protecting group the still attached and protected peptide was labeled with a 1.5 fold amount of LightCycler-Red 640-N-hydroxy succinimide ester (purchased by Roche Diagnostics GmbH) and triethylamine. After 3 hrs. the resin was washed with Dimethylformamide and Isopropanol until the eluates of the blue resin got colourless. […] The substrate was finally isolated by a preparative reverse phase HPLC purification. The purification yielded 12.2 mg RP-HPLC single peak pure blue material (lyophilisate). The identity was proven by MALDI mass spectroscopy [2720.0]. Enzymes: Upstate Lck (p56^lck, active), Upstate Src (p60^c-src, partially purified) were purchased from UBI. Time-resolved Fluorescence Assay: Reader: Perkin Elmer, Wallac Viktor 1420-040 multilabel counter; Liquid handling system: Beckman Coulter, Biomek 2000. ATP, Tween 20, HEPES were purchased from Roche Molecular Biochemicals, MgCl2 and MnCl2 were purchased from Merck Eurolab, TCEP was purchased from Pierce, 384 Well low volume fluorescence plates was purchased from Falcon. Assay Description:
(§5) At first the enzyme is pre-incubated for 15 min. at 15° C. in aqueous solution with corresponding amounts of inhibitors according to this invention. Then the phosphorylation reaction is started by adding a reaction mixture, containing ATP, Peptide and PT66, and subsequent shaking. The proceeding of this reaction is immediately monitored using time resolved fluorescence spectroscopy in a suitable well plate reader.
(§6) The IC50-values can be obtained from the reaction rates by using a non-linear curve fit (Excelfit).

For series [2], the target named is T2, Lck (p56^lck) (Homo sapiens, UniProt P06239).
T2 construct: purchased Upstate (UBI)
T2 sequence (P06239 whole entry, species assumed): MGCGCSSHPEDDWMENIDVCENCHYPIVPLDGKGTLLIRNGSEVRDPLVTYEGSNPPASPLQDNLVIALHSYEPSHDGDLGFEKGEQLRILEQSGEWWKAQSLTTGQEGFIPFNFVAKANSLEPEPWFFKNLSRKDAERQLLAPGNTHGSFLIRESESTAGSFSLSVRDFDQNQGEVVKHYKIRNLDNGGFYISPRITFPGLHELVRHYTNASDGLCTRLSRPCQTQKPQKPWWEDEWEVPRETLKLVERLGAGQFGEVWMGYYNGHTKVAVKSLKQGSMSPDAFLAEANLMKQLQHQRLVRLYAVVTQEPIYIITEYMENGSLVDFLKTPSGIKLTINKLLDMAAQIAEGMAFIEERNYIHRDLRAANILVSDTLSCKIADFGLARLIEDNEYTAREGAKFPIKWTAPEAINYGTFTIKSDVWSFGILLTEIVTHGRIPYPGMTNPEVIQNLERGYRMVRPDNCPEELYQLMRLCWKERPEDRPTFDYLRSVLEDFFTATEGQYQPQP
Put plainly: SRC-Inhibitor-Assay, time-resolved fluorescence kinase assay (Lck). It counts as biochemical. To be noted: ATP 5 μM; enzyme 2.5 U/ml; pre-incubation 15 min at 15° C.; read-out: IC 50 (lck). As for the experimental part:
as §1, §2, §3, §4, §5, §6

Series [3] in a line: Pharmacokinetic study in mice, plasma levels after single p.o. dose. It is filed as in vivo. To be noted: male NMRI mice, p.o. single dose 30 mg/kg as micro-suspension, dose-normalised. As for the experimental part:
A preferred pharmaceutical preparation was obtained by using the following procedure: • 1. Weigh 4.0 g glass beads in custom made tube GL 25, 4 cm (the beads fill half of the tube). • 2. Add 50 mg compound, disperse with spatulum and vortex. • 3. Add 2 ml gelatin solution (weight beads: gelatin solution=2:1) and vortex. • 4. Cap and wrap in aluminium foil for light protection. • 5. Prepare a counter balance for the mill. • 6. Mill for 4 hours, 20/s in a Retsch mill (for some substances up to 24 hours at 30/s). • 7. Extract suspension from beads with two layers of filter (100 μm) on a filter holder, coupled to a recipient vial by centrifugation at 400 g for 2 min. • 8. Move extract to measuring cylinder. • 9. Repeat washing with small volumes (here 1 ml steps) until final volume is reached or extract is clear. • 10. Fill up to final volume with gelatin and homogenise.
The above described preparation yields micro-suspensions of the compounds of formula I with particle sizes between 1 and 10 μm. The suspensions are suitable for oral applications and were used in the in vivo pharmacokinetic testings described below.
To male NMRI mice of 29–35 g body weight the compounds according to this invention were given p.o. as micro-suspensions (7.5% modified gelatine and 0.22% NaCl) in doses of 30 mg/kg (Drug concentration: 3 mg/mL. Administered volume: 10 mL/kg) and as single dose administration. Study Protocol:
Animals were fasted overnight up to 4 hrs. after administration of the compound. For each single p.o. dose the mice were allocated to 3 groups with 4 animals each. Blood samples are taken from group 1 at 0.5, 3 and 24 hours, from group 2 at 1 and 6 hours, and from group 3 at 2 and 8 hours.
Blood samples of about 200 μl were obtained by retro-orbital puncture. Plasma samples were obtained from heparinized/EDTA blood by centrifugation at room temperature, and stored frozen at −20° C. until analysis.
Plasma was deproteinated and subsequently analysed for plasma levels of the compound by a compound specific HPLC-MS method. WinNonlin™ was used to calculate the pharmacokinetic parameters.

T1 sequence (P12931 whole entry): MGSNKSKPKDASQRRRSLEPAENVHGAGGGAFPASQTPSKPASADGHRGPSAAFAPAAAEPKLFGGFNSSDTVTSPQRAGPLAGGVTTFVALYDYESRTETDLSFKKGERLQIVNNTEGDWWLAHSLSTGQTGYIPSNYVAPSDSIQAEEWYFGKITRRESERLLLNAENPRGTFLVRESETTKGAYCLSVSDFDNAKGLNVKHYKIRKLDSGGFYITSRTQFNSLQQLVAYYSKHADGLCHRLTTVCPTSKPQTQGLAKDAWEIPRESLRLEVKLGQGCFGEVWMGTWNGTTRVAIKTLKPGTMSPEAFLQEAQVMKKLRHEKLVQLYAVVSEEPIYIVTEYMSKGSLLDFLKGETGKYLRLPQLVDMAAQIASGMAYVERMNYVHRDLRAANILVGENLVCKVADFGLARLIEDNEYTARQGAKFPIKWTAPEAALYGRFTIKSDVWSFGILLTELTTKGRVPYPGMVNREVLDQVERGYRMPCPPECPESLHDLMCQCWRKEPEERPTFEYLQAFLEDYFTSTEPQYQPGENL

Regarding `CC1c2cnc(Nc3ccc4c(c3)S(=O)(=O)CCO4)nc2N(C)C(=O)N1c1ccccc1Br` (single isomer, unassigned; enantiomer 1) [Example 8a, 3-(2-Bromo-phenyl)-7-(4,4-dioxo-3,4-dihydro-2H-4λ^6-benzo[1,4]oxathiin-6-ylamino)-1,4-dimethyl-3,4-dihydro-1H-pyrimido[4,5-d]pyrimidin-2-one; enantiomer 1], the IC50 came out at 0.4 nM in series [1] and 8.1 nM in series [2].

Consider `CC1c2cnc(Nc3ccc4c(c3)S(=O)(=O)CC(=O)N4C)nc2N(C)C(=O)N1c1ccccc1Br` (single isomer, unassigned; enantiomer 1) [Example 13-52, 3-(2-Bromo-phenyl)-1,4-dimethyl-7-(4-methyl-1,1,3-trioxo-1,2,3,4-tetrahydro-1λ^6-benzo[1,4]thiazin-7-ylamino)-3,4-dihydro-1H-pyrimido[4,5-d]pyrimidin-2-one; enantiomer 1], for which the IC50 in series [1] was determined as 0.019 nM; in series [2] it was 0.0246 nM. With `CC1c2cnc(Nc3ccc4c(c3)S(=O)(=O)CCO4)nc2N(C)C(=O)N1c1ccccc1Br` (single isomer, unassigned; enantiomer 2) [Example 13-50, 3-(2-Bromo-phenyl)-7-(4,4-dioxo-3,4-dihydro-2H-4λ^6-benzo[1,4]oxathiin-6-ylamino)-1,4-dimethyl-3,4-dihydro-1H-pyrimido[4,5-d]pyrimidin-2-one; enantiomer 2], the IC50 in series [1] was determined as 2970 nM; in series [2] it was 1340 nM. On to `CC1c2cnc(Nc3ccc4c(c3)S(=O)(=O)CC(=O)N4C)nc2N(C)C(=O)N1c1ccccc1Br` (single isomer, unassigned; enantiomer 2) [Example 13-51, 3-(2-Bromo-phenyl)-1,4-dimethyl-7-(4-methyl-1,1,3-trioxo-1,2,3,4-tetrahydro-1λ^6-benzo[1,4]thiazin-7-ylamino)-3,4-dihydro-1H-pyrimido[4,5-d]pyrimidin-2-one; enantiomer 2], for which the IC50 in series [1] is 2520 nM; in series [2] it was 1280 nM. Regarding `CC(=O)N1CCC2(CC1)Oc1ccc(Nc3ncc4c(n3)N(C)C(=O)N(c3ccccc3Br)C4)cc1O2` [Example 6, 3-(2-bromo-phenyl)-3,4-dihydro-7-(1′-acetyl-spiro[1,3-benzodioxolo-2,4′-piperidine]-5-yl)amino-1-methyl-pyrimido[4,5-d]pyrimidin-2(1H)-one], the “AUC = area under the curve from T = 0 to T = 24 hrs” value in series [3] is 315 (h * ng/ml))/(mg/kg). On to `CN1C(=O)N(c2c(F)cccc2Br)Cc2cnc(Nc3ccc4c(c3)S(=O)(=O)CCO4)nc21` [Example 8, 3-(2-bromo-6-fluoro-phenyl)-7-(4,4-dioxo-3,4-dihydro-2H-4λ^6-benzo[1,4]oxathiin-6-ylamino)-1-methyl-3,4-dihydro-1H-pyrimido[4,5-d]pyrimidin-2-one], for which the IC50 came to 1.8 nM in series [1] and 4.7 nM in series [2]. Taken in the same sequence, the figures for `CN1CCS(=O)(=O)c2cc(Nc3ncc4c(n3)N(C)C(=O)N(c3c(F)cccc3Br)C4)ccc21` [Example 11, 3-(2-bromo-6-fluoro-phenyl)-1-methyl-7-(4-methyl-1,1-dioxo-1,2,3,4-tetrahydro-1lambda*6*-benzo[1,4]thiazin-7-ylamino)-3,4-dihydro-1H-pyrimido[4,5-d]pyrimidin-2-one] were 0.8 nM and 4.3 nM. With `CN1Cc2ccc(Nc3ncc4c(n3)N(C)C(=O)N(c3ccccc3Br)C4)cc2C1` [Example 13-3, 3-(2-bromo-phenyl)-1-methyl-7-(2-methyl-2,3-dihydro-1H-isoindol-5-ylamino)-3,4-dihydro-1H-pyrimido[4,5-d]pyrimidin-2-one; hydrochloride salt], the IC50 in series [1] was determined as 1.5 nM; in series [2] it was 4.2 nM. As for `CN1C(=O)N(c2ccccc2Br)Cc2cnc(Nc3ccc4c(c3)S(=O)(=O)CO4)nc21` [Example 13-4, 3-(2-bromo-phenyl)-7-(3,3-dioxo-2,3-dihydro-3lambda*6*-benzo[1,3]oxathiol-5-ylamino)-1-methyl-3,4-dihydro-1H-pyrimido[4,5-d]pyrimidin-2-one], the results for the IC50 in series [1] and in series [2] were 17 nM and 29.4 nM, respectively. As to `CN1C(=O)N(c2ccccc2Br)Cc2cnc(Nc3ccc4c(c3)OCO4)nc21` [Example 13-8, 7-(benzo[1,3]dioxol-5-ylamino)-3-(2-bromo-phenyl)-1-methyl-3,4-dihydro-1H-pyrimido[4,5-d]pyrimidin-2-one], the figures for the IC50 in series [1] and in series [2] were 17 nM and 20 nM, respectively. Consider `CN1C(=O)c2ccc(Nc3ncc4c(n3)N(C)C(=O)N(c3c(F)cccc3Br)C4)cc2C1=O` [Example 13-16, 5-[6-(2-bromo-6-fluoro-phenyl)-8-methyl-7-oxo-5,6,7,8-tetrahydro-pyrimido[4,5-d]pyrimidin-2-ylamino]-2-methyl-isoindole-1,3-dione], for which the IC50 in series [1] turned out to be 11 nM; in series [2], 21 nM. As for `O=C1CS(=O)(=O)c2cc(Nc3ncc4c(n3)NC(=O)N(c3c(F)cccc3Br)C4)ccc2N1` [Example 13-29], the values for the IC50 in series [1] and in series [2] were 2.5 nM and 6.7 nM, respectively. For the compound `COc1ccc(Br)c(N2Cc3cnc(Nc4ccc5c(c4)S(=O)(=O)CCO5)nc3N(C)C2=O)c1` [Example 13-48, 3-(2-Bromo-5-methoxy-phenyl)-7-(4,4-dioxo-3,4-dihydro-2H-4λ^6-benzo[1,4]oxathiin-6-ylamino)-1-methyl-3,4-dihydro-1H-pyrimido[4,5-d]pyrimidin-2-one], the IC50 in series [1] came out at 72.8 nM; in series [2] it was 37.5 nM. With `COc1cccc(F)c1N1Cc2cnc(Nc3ccc4c(c3)S(=O)(=O)CCO4)nc2N(C)C1=O` [Example 13-49, 7-(4,4-Dioxo-3,4-dihydro-2H-4λ^6-benzo[1,4]oxathiin-6-ylamino)-3-(2-fluoro-6-methoxy-phenyl)-1-methyl-3,4-dihydro-1H-pyrimido[4,5-d]pyrimidin-2-one], the figures for the IC50 in series [1] and in series [2] were 7.2 nM and 5.4 nM, respectively. With `CN1C(=O)N(c2c(F)cccc2C#N)Cc2cnc(Nc3ccc4c(c3)S(=O)(=O)CCO4)nc21` [Example 13-53, 2-[7-(4,4-Dioxo-3,4-dihydro-2H-4λ^6-benzo[1,4]oxathiin-6-ylamino)-1-methyl-2-oxo-1,4-dihydro-2H-pyrimido[4,5-d]pyrimidin-3-yl]-3-fluoro-benzonitrile], the IC50 in series [1] is 4.3 nM; in series [2], 12.9 nM. As to `CCN(CC)CCOc1ccc(Nc2ncc3c(n2)N(C)C(=O)N(c2ccccc2Br)C3)cc1` [Reference cpd 43 from WO 00/24744A, 3-(2-bromo-phenyl)-7-[4-(2-diethylamino-ethoxy)-phenylamino]-1-methyl-3,4-dihydro-1H-pyrimido[4,5-d]pyrimidin-2-one, reference compound], the “AUC = area under the curve from T = 0 to T = 24 hrs” value in series [3] was 69.3 (h * ng/ml))/(mg/kg).
